Source: ChEMBL document CHEMBL3232821, “1,2-benzisothiazol-3-one derivatives as a novel class of small-molecule caspase-3 inhibitors” (Bioorg Med Chem, 2014)
Active and inactive are the calls of the source. No cut-off for these calls is given here.

How the values were obtained:
[1] = target: T1, Caspase-7 (Homo sapiens, UniProt P55210); experiment: Inhibition of human recombinant caspase-7 using Ac-DEVD-AMC as substrate after 10 mins by fluorescence assay
T1 sequence (P55210 whole entry): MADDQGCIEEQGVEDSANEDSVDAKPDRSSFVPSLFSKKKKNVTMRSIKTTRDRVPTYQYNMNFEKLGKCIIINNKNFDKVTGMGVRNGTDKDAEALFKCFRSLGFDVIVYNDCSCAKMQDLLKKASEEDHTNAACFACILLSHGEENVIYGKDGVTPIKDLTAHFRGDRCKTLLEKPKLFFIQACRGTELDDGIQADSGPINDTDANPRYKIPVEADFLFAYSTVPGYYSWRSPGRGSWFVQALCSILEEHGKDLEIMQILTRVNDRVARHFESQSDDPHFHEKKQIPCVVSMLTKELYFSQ

[2] = test system: Jurkat; experiment: Antiapoptotic activity in human Jurkat T cells assessed as protection against camptothecin-induced apoptosis at 50 uM treated 2 hrs before camptothecin addition measured after 4 hrs using annexin V-FITC and 7-AAD staining by flow cytometry; format: functional, cell-based
[3] = Solubility of the compound in water; format: physicochemical; conditions: buffer
[4] = target: T2, Caspase-3 (Homo sapiens, UniProt P42574); experiment: Inhibition of human recombinant caspase-3 using […] as substrate after 10 mins by fluorescence assay
T2 sequence (P42574 whole entry): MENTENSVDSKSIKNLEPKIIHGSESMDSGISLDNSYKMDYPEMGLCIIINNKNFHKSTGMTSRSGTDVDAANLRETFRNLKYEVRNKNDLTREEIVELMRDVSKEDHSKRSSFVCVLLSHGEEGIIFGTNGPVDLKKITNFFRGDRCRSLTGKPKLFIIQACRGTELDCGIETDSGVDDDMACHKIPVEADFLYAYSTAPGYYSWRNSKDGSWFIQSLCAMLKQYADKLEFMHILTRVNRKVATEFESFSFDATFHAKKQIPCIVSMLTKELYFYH

Row | Compound | IC50 [1] | Activity [2] | solubility [3] | IC50 [4]
1 | O=c1[nH]sc2ccccc12 | 137 µM |  |  | 
2 | O=C(Cn1sc2ccccc2c1=O)Nc1ccc(N2CCOCC2)cc1 | 100 µM |  |  | 
3 | O=C(NCc1ccc(N2CCOCC2)cc1)n1sc2ccccc2c1=O | 248 µM | Active | soluble | 
4 | O=C(Nc1ccc(N2CCOCC2)cc1)n1sc2ccccc2c1=O | 0.909 µM |  | Insoluble | 0.00115 µM
